In US20060257474A1, “Remedies for glomerular diseases” (Kowa Co., Ltd., priority 2002, published 2006):
Counter-ions that a name gives are not always drawn.

Test system: progressive anti-Thy-1 nephritic rat
Test: Pharmacological test to a progressive anti-Thy-1 nephritic rat: total amount of protein excretion in urine
Assay type: in vivo, Wistar female rats
Settings: 18 h urine
Protocol: Wistar female rats (5 weeks of age, purchased from Japan SLC Co., Ltd.) were quarantined and acclimatized for 4 days and then used for the test. First, a right kidney of the rat was removed through a flank incision under anesthesia with pentobarbital. After 2 weeks passed, an anti-Thy-1 antibody (monoclonal antibody 1-22-3; purchased from […] Laboratories Co., Ltd.) was intravenously administered (500 μg/rat) into the tail vein to thereby bring about progressive renal damage, and the following tests 1 to 3 were immediately investigated. […] Control group (antibody-treated and compound-non-administered group): N=8, an antibody-non-treated group: N=6. Test 2: dilazep hydrochloride (10 mg/kg) dissolved in a physiological saline was continuously intraperitoneally administered for 10 weeks. Control group (antibody-treated and compound-non-administered group): N=8, an antibody-non-treated group: N=6. […] Control group (antibody-treated and compound-non-administered group): N=10, an antibody-non-treated group: N=6. In each test, after administering the drugs for 10 weeks, urine was taken for 18 hours by means of a metabolic cage (Sugiyama Gen Co., Ltd.) to measure the total amount of protein excretion in urine.

How did the “total amount of protein excretion in urine” value (dilazep hydrochloride alone, 10 mg/kg intraperitoneally for 10 weeks, vs compound-non-administered control group (FIG. 2)) turn out when `COc1cc(C(=O)OCCCN2CCCN(CCCOC(=O)c3cc(OC)c(OC)c(OC)c3)CC2)cc(OC)c1OC` [dilazep hydrochloride] was run?
The value was “almost the same as that of the compound-non-administered group in the control”.

How did the “total amount of protein excretion in urine” value (pitavastatin calcium alone, 10 mg/kg orally for 10 weeks, vs compound-non-administered control group (FIG. 1)) turn out when `O=C([O-])C[C@H](O)C[C@H](O)/C=C/c1c(C2CC2)nc2ccccc2c1-c1ccc(F)cc1.O=C([O-])C[C@H](O)C[C@H](O)/C=C/c1c(C2CC2)nc2ccccc2c1-c1ccc(F)cc1.[Ca+2]` [pitavastatin calcium] was run?
Its value is “almost the same as that of the compound-non-administered group in the control”.
